Source: patent US11034672B1, “Tyrosine kinase inhibitor compositions, methods of making and methods of use” (Black Diamond Therapeutics, Inc., priority 2018, dated 2021)

Key:
WT-EGFR (A431 cell line) = WT-EGFR (A431 cell line) (Homo sapiens, UniProt P00533); experiment: A431 cell proliferation (Cell Titer Glo), WT-EGFR; format: cell-based; conditions: A431 cells, 72 hours
Experimental: To determine the ability of Compound No. 6 to target wild type HER2, wild type EGFR, and relevant mutants of each, a panel of BaF3 cell lines and the A431 cell line were dosed and assessed in cell proliferation assays. The BaF3 parental cell line is normally dependent on IL-3 for proliferation, but when transformed with active tyrosine kinase can grow in the absence of IL-3. However, when transformed kinase activity is inhibited by a targeted small molecule the associated proliferation is reduced in proportion to the extent of inhibition. […] Proliferation was assessed using the Cell Titer Glo cell proliferation kit (Promega # G7573). […] Cell Titer Glo was added to plated cells at 15 ul per well, the plate was shaken for 20 minutes at room temperature, and luminescence was measured using Victor X3 Multimode plate reader (Perkin Elmer), Cell Titer Glo readings were taken following 72 hours (T72) after addition of Compound No. 6. […]
The BaF3 parental cell line is normally dependent on IL-3 for proliferation, but when transformed with active tyrosine kinase can grow in the absence of IL-3. […] Proliferation was assessed using the Cell Titer Glo cell proliferation kit (Promegaf# G7573). […] Cell Titer Glo was added to plated cells at 15 ul per well, the plate was shaken for 20 minutes at room temperature, and luminescence was measured using Victor X3 Multimode plate reader (Perkin Elmer). […]

HER2-ASV = HER2-ASV (Homo sapiens, UniProt P00533, INS769ASV, cells depend on it); experiment: BaF3 panel Cell Titer Glo proliferation, Exon 20 insertion ASV (Example 3); format: cell-based; conditions: BaF3 transformant, 72 hours, FIG. 21
Her2 Exon 20-YVMA A775 = experiment: Tumor pHER2/pERK AlphaLisa in mice bearing Her2 Exon 20-YVMA A775 BaF3 tumors (Example 14); format: in vivo; conditions: two day acute oral dosing, 15 mg/kg; at peak plasma levels; FIG. 33
Experimental: Athymic nude mice from Charles River Labs bearing Her2 Exon 20-YVMA A775 BaF3 tumors were treated with two day acute oral dosing of Compound No. 26 at 15 mg/kg. Following the second dose, tumors were collected at 2 hours, 5 hours, 12 hours and 24 hours, and analyzed for both pHER2 activity and pERK activity via AlphaLisa. Plasma was also collected at these time points and analayzed for the presence of Compound No. 26 to determine pharmacokinetic profile. […] The protein concentration of the supernatant was measured using the BCA reagent Kit (Thermo Scientific #23225). Tumor tissue-derived lysates were analyzed for either HER2 activity or EGFR activity by detection of pHER2 (Tyr1221/1222) or pERK (Thr202/Tyr204) phosphosites, respectively, via AlphaLisa. […] The plate was covered and shaken for 5 minutes on a plate shaker and then incubated at room temperature in the dark for 90 minutes before reading. pHer2 AlphaLisa (Perkin Elmer # ALSU-PEB2-A10K) was used to quantify phosphorylation of Her2 (Tyr1221/1222) or pERK AlphLisA (Perkin Elmer # […]-A10K) was used to quantify phosphorylation of ERK1/2 (Thr202/Tyr204) in the control and Compound No. 26 treated tumor samples.

Sequence of WT-EGFR (A431 cell line) (P00533 25-1210): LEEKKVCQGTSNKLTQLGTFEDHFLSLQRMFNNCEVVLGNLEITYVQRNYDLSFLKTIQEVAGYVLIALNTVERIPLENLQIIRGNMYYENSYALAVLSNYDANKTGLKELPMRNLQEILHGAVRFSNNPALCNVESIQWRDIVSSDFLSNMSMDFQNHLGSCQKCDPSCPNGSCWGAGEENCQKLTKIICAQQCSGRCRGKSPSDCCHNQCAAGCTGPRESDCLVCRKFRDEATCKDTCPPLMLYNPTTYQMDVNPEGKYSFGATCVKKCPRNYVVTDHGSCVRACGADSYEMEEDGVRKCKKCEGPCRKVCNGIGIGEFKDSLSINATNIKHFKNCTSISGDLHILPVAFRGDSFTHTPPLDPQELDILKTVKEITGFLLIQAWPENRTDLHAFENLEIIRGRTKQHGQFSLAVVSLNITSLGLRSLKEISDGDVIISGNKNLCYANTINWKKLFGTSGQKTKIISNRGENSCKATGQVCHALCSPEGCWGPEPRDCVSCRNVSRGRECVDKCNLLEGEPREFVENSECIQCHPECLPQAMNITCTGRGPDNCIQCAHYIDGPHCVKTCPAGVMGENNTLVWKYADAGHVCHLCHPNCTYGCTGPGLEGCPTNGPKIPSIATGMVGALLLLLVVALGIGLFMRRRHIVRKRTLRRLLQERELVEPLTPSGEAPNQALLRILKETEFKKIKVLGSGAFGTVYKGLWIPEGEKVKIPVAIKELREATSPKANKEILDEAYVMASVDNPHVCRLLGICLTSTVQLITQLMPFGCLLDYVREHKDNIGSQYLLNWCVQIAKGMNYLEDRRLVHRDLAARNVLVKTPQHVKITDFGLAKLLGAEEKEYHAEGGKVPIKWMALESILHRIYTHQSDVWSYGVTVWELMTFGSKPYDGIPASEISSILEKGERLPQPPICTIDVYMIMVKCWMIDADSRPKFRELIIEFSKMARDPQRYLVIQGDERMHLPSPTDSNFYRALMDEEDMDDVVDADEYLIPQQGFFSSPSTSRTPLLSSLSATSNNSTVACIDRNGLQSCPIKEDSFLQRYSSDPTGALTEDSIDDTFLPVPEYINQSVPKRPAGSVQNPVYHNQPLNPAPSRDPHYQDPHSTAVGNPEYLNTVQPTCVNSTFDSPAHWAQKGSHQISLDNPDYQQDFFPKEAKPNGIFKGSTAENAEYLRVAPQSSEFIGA
Sequence of HER2-ASV (P00533 25-1210, stated change not applied): as the sequence (P00533 25-1210) above

| IC50 (WT-EGFR (A431 cell line)) [nM] | IC50 (HER2-ASV) [nM] | Structure (SMILES) | pERK1/2 (Thr202/Tyr204) in tumors (Her2 Exon 20-YVMA A775) | pHER2 (Tyr1221/1222) in tumors (Her2 Exon 20-YVMA A775) |
| --- | --- | --- | --- | --- |
| > 100 |  | C=CC(=O)Nc1cc2c(Nc3ccc(OCc4ccccn4)c(Cl)c3)ncnc2cc1OCCN1CCOCC1 [compound 8] |  |  |
| > 100 | < 100 | C=CC(=O)Nc1cc2c(Nc3cc(Cl)c(OCc4cccc(F)c4)cc3F)ncnc2cc1OCCN1CCOCC1 [compound 6] |  |  |
|  |  | C=CC(=O)Nc1cc2c(Nc3ccc(OCc4ccccn4)c(Cl)c3)ncnc2cc1C#C[C@@H]1[C@H]2CN(C)C[C@@H]12 [compound 26] | near complete reduction | near complete reduction |
